Laboratory results reported in patent US9233079B2, “Method for producing nanocapsules in the absence of an organic solvent, and nanocapsules produced thereby” (UNIVERSITE CLAUDE BERNARD LYON I, priority 2008, dated 2016).

Experiment: Saturation concentration of chlorhexidine base in water
Format: physicochemical
Procedure: The size and the zeta potential of the nanocapsules, determined using a Zetamaster® S, are 450 nm and −40 mV, respectively. The concentration of free (i.e. nonencapsulated) chiorhexidine in the nanocapsule suspension was determined after filtration of the colloidal suspension through a 0.22 μm filter. After dilution in distilled water, the concentration of chiorhexidine base free in the filtrate, determined by high performance liquid chromatography (HPLC) (H. Lboutounne, V. Faivre, F. Faison, and F. Pirot, Skin Pharmacology and Applied Skin Physiology 17: 176-182 (2004); H. Lboutounne, J.-F. Chaulet, C. Ploton, F. Faison, and F. Pirot Journal of Controlled Release 82: 319-334 (2002); D. T. T. Nhung, A.-M. Freydiere, H. Constant, F. Faison, and F. Pirot International Journal of Pharmaceutics 334:166-172 (2007)), was in the region of 0.008%, i.e. the saturation concentration of chiorhexidine base in water. The concentration of encapsulated chlorhexidine base was determined by virtue of the difference between the total concentration of chlorhexidine base in the suspension and the concentration of free chlorhexidine. The total concentration of encapsulated chiorhexidine base was determined after dilution of an aliquot of colloidal suspension in a mixture of acetonitrile/sodium acetate (30 mM) (50/50, v/v). […]

## N=C(NCCCCCCNC(=N)NC(=N)Nc1ccc(Cl)cc1)NC(=N)Nc1ccc(Cl)cc1 [chlorhexidine base, Chlorhexidine base]
  saturation concentration of chlorhexidine base in water: ~0.008%
